Drawing on BindingDB's records for PubMed 38340508 (Biomedical Research Foundation of the Academy of Athens), this text covers IC50 for one compound.

Each structure is given as a SMILES string.

A short description of the experiment: Inhibition of MYC in chicken embryonic fibroblasts assessed as reduction in transformed cell foci with repeated addition of compounds every second day and measured after 1 to 3 weeks by crystal violet staining based analysis.

By IC50 is commonly meant the midpoint of a concentration-inhibition curve.

For `Cc1cc(N2CCCCC2)nc2ccc(Cc3ccc4nc(N5CCCCC5)cc(C)c4c3)cc12`, the half-maximal inhibitory concentration (IC50) stood at 3000 nM.
